Assay [1] relates to DNA strand breaks in human monocytes. Description: DNA damage in monocytes, fluorescent assay for DNA unwinding in alkaline solution. The note with it: for additional residual double-stranded DNA (repair) after CdA removal: over the next four hours. Format: cell-based. The protocol: FIG. 4 is a graph of the dose- and time-dependence for CdA in inducing DNA strand breaks in monocytes in vitro.
Monocytes were plated as discussed previously, and were then contacted with compositions containing various concentrations of CdA. The amount of DNA damage in monocytes exposed to CdA was determined by the fluorescent assay for DNA unwinding in alkaline solution described by Birnboim and Jevcak (1981) Cancer Res., 41:1889-1892, modified to accommodate lower cell numbers (Thierry et al. (1985) Radiation Res., 102:347-358).
The unwinding rate of DNA in alkaline solution at 15 degrees C. is proportional to the number of DNA strand breaks or alkali-labile sites. The ethidium bromide fluorescence of residual duplex DNA in samples exposed to pH 12.8 for one hour was compared to the fluorescence of a DNA aliquot that was not exposed to alkali. The percent residual double-stranded DNA at 1 hour was taken as a measure of the DNA damage in the sample. The results are illustrated in FIG. 4.
The repair of monocyte DNA damage caused by CdA was compared to the damage caused by gamma irradiation. Monocytes were pre-exposed to 0.1 or 1.0 μM CdA for four hours. At the end of this time, approximately 60 percent residual double-stranded DNA was present in the cells. The CdA was removed, and the amount of residual double-stranded DNA was calculated over the next four hours. Any increase in doublestranded DNA represents ongoing repair mechanisms.

The subject of the next assay is human monocytes. Put plainly: Cellular NAD, ATP and viability in human monocytes exposed to CdA. In kind it is cell-based. The note with it: CdA at 1 nM. The protocol: FIG. 5 is a graph showing the biochemical effects induced in human monocytes in vitro by exposure to […] CdA over a period of 16 hours. The effects of CdA exposure upon monocyte viability (open squares), NAD content (closed squares), RNA synthesis (open circles) and DNA strand breaks (ds-DNA; closed circles) are illustrated.
Cellular NAD content was measured in human monocytes following incubation in culture with CdA (1 nM). An alcohol dehydrogenase cycling assay as described in Jacobson and Jacobson (1976) Arch. Biochem. Biophys. 175:627-634 was used to measure NAD.
Monocytes, cultured and contacted as before described, were detached from the culture wells and were treated with perchloric acid (0.5M) for 10 minutes at 4 degrees C. The mixture was clarified and neutralized with KOH containing potassium phosphate buffer (0.33M) at pH 7.5.Monocyte ATP was quantitated in perchloric acid extracts by anion exchange HPLC, using a Whatman SAX column with an isocratic mobile phase consisting of KH2 PO4 (0.25M), KCl (0.5M) and acetonitrile (2 percent) at pH 3.6 following the procedures of Carson et al. (1980) Proc. Nat'l. Acad, Sci. USA, 77:6865-6869.
NAD^+ consumption for poly(ADP-ribose) synthesis is a known consequence of severe DNA damage in eukaryotic cells. […]

In assay [2] the test system is Peripheral blood lymphocytes. Put plainly: Direct comparative cytotoxicity assay (Table II), peripheral blood lymphocytes. Format: cell-based, human. The note with it: Homo sapiens, Lymphocyte, 120 h, read-out: ID50: concentration that produced 50 percent reduction in all numbers after five days. The text has this:
The two compounds, CdA and CAFdA, were also compared for in vitro activity against another group of human cell lines in a direct comparative assay.
^1 Concentration that produced 50 percent reduction in all numbers

SMILES strings stand for the structures. Where only a bound is given, the exact number is not on record here.

With `Nc1nc(Cl)nc2c1ncn2[C@H]1C[C@H](O)[C@@H](CO)O1` [CdA, 2-chloro-9,1'-beta-D-2'-deoxyribosyladenine], the “time to appearance of DNA breaks” value in assay [1] (10 nM CdA) is ≤ 2 h. In addition, the “additional residual double-stranded DNA (repair) after CdA removal” value in assay [1] (0.1 μM CdA) was 10%; in assay [1] (1.0 μM CdA) it was “no increase”. For the same molecule, the “residual double-stranded DNA” value in assay [1] (pre-exposed to 0.1 or 1.0 μM CdA for four hours) is recorded as “approximately 60%”. Moreover, in the assay with human monocytes, the “exposure time at which decreases in ATP and cell viability were first evident” value was determined as 16 h. Moreover, in the assay on human monocytes (first four hours of exposure), the “monocyte NAD content” value is listed as > 95% of control NAD. In addition, in assay [2], the IC50 turned out to be 15 nM.

Values taken from US5506213A, “Adminstration of 2'-halo-2'-deoxy adenosine to treat inflammatory bowel disease” (priority 1994, dated 1996).
